Results reported in US6787556B1, “Benzoic acid derivatives for the treatment of diabetes mellitus” (AstraZeneca AB, priority 1999, dated 2004).

What was measured:
Type in all cases: cell-based
human PPARα = target: T1, human PPARα (Homo sapiens, UniProt Q07869); test: Cell transactivation assay in transiently transfected Hepa1c1c7 cells, PPRE-Lac Z reporter; details: concentration of 10 μM
T1 construct: expressed in transfected cells; host or cells: Hepa1c1c7 cells (transient transfection, Superfect)
T1 sequence (Q07869 1-468): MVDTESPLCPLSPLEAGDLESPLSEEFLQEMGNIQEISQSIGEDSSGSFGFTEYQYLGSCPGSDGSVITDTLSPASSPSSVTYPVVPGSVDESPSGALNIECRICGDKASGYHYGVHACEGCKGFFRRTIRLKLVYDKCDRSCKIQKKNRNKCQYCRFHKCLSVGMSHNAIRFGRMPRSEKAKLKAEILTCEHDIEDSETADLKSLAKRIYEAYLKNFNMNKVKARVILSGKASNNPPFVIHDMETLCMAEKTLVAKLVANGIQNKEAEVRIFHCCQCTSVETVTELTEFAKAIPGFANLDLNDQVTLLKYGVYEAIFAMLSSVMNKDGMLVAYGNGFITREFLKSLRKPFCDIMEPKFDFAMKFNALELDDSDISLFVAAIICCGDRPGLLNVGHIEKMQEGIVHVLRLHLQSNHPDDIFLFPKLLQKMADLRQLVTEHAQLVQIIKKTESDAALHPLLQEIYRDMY
Procedure: (§1) (B) Cell Transactivation Assays
(§2) Assays were performed by transient transfection of Hepa1c1c7 cells in which compounds of the invention were tested for their ability to activate human PPARα, δ and γ isoforms. Cells were co-transfected with either PPARa, d and g expression vectors (containing the entire ORF sequence) and a reporter construct carrying a PPRE linked Lac Z construct. Cells were transfected using Superfect and cultured in T75 flasks overnight, then plated into 96 well plates and left for 5 hours before the addition of test compound. After a further 24 hours PPAR activation was quantitated indirectly as β-Galactosidase activity by hydrolysis of chlorophenol red-β-D-galactopyranoside (CPRG), measured spectrophotometrically at 580 nm. Compounds of the invention were active in this assay.
(§3) According to their activity in transactivation assays and by comparison to the selective PPARγ agonist, BRL 49653; compounds of the invention were categorised as either having pharmacological properties consistent with: selective PPARγ agonists, partial agonists or non-selective PPAR α/γ agonists.

human PPARγ = target: T2, human PPARγ (Homo sapiens, UniProt P37231); test: as above; details: concentration of 10 μM
T2 construct: expressed in transfected cells; host or cells: Hepa1c1c7 cells (transient transfection, Superfect)
T2 sequence (P37231 1-505): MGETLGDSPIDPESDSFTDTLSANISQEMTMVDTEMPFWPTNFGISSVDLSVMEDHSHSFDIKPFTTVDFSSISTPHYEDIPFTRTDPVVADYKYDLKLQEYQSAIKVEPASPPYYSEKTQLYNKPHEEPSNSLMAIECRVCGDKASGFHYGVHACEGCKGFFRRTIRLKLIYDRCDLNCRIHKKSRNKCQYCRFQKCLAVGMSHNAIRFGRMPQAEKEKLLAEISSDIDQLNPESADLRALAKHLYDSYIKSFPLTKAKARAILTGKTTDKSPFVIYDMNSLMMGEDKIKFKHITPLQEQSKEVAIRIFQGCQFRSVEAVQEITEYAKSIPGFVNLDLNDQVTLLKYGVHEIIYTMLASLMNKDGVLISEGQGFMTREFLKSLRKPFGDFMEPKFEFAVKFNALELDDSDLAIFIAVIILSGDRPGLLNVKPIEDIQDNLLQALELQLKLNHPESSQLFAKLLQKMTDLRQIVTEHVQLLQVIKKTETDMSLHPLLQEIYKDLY
Procedure: as §1, §2, §3

3T3L1 preadipocytes = test: Adipocyte differentiation assay (glycerophosphate dehydrogenase activity); details: concentration of 10 μM, 3T3L1 cells, day 7; positive control BRL 49653
Procedure: Adipocyte Differentiation Assay
3T3L1 preadipocytes were grown in DMEM containing 10% NBCS and 1 day post-confluence cells were cultured in differentiation medium (DMEM containing 5% FCS, 1 μg/ml insulin, 0.25 μM dexamethasone and 0.5 mM IBMX) in the presence or absence of compounds. BRL 49653 was used as the positive control and the medium replenished after 3 days. On day 7, cells were lysed and glycerophosphate dehydrogenase activity measured spectrophotometrically at 340 nm.

α transactivation (human PPARα): 25%
γ transactivation (human PPARγ): 64%
SMILES: COc1cc(-c2nnn(Cc3ccccc3C(=O)O)n2)ccc1CN(C)C(=O)COc1ccc(Cl)cc1 [Compound 46]
activity as compared to the control (glycerophosphate dehydrogenase activity) (3T3L1 preadipocytes): 79%
